# Source: patent US12358927B2, “IRAK4 inhibitor crystal and preparation method therefor” (CHIA TAI TIANQING PHARMACEUTICAL GROUP CO., LTD., priority 2020, dated 2025)
# Where “and” joins values, the source holds several entries; their conditions need not be identical. Equal values may be shown once. Read-outs that look alike come from different tables or passages of the source.
# Key:
# [1] = Study of approximate solubility in water; type: physicochemical; settings: room temperature, dissolution determined by the naked eye
# Method: About 2.0 mg of samples were weighed and added into 1.5 mL glass vials, water was gradually added using pipetting gun, and the mixture was dissolved by sonication as appropriate. The test was conducted at room temperature and the dissolution was determined by the naked eye, and the approximate solubility results are shown in Table 10.
# [2] = Equilibrium solubility experiment for biological media and pH buffers; type: physicochemical
# Method: The taken samples were centrifuged, the supernatant of the samples was taken and diluted by a proper time after pH was determined, and the concentration of the supernatant was determined by UPLC.
# Diluent: acetonitrile:water (1:1)
# Mobile phase A: 0.1% aqueous FA solution
# Mobile phase B: 0.1% FA ACN/MeOH (1:1) solution
# Two parts of control solutions were prepared in parallel, and labeled STD #1 and STD #2, respectively.
# The control solution STD #1 was taken and diluted by 1, 5, 10, 100, 1000, 2000 times, and recorded as linear solutions L1, L2, L3, L4, L5 and L6. The sample diluted by 2000 times was recorded as LOQ.
# [3] = In vivo pharmacokinetic study in SD rats; settings: rat, plasma, SD male rats, oral, 30 mg/kg
# Method: The test compound was mixed with 5% dimethyl sulfoxide/10% polyoxyethylene stearate/85% aqueous solution, and the mixture was vortexed and sonicated to prepare a 3 mg/mL clear solution for later use. SD male rats aged 7 to 10 weeks were selected and orally administered with a dose of the candidate compound at 30 mg/kg. Whole blood was collected at certain time points, and plasma was separated. The drug concentration was measured by LC-MS/MS, and pharmacokinetic parameters were calculated using Phoenix WinNonlin software (Pharsight, USA).
# [4] = Study of hygroscopicity (25° C., 80% relative humidity, 24 h); type: physicochemical; settings: relative humidity 80%
# Text: Calculation: weight gain %=(m3−m2)/(m2−m1)×100%
# [5] = Study of solid stability (accelerated conditions, XRPD); type: physicochemical; settings: 40° C./75% RH 2 and 3 months; 60° C./75% RH 1 and 2 months
# Method: The samples were placed at (40° C./75% RH) for 2 months and 3 months and at (60° C./75% RH) for 1 month and 2 months, and the placed samples were characterized by XRPD. The test results were compared with the initial test results of 0 days.
# [6] = Study of polycrystalline forms (solution suspension crystallization, XRPD); type: physicochemical; settings: 13 single or mixed solvents of Table 7, stirred 2 days at 50° C.
# Method: Then, samples of the aforementioned suspensions were stirred for 2 days on a constant-temperature heating stirrer at 50° C. The reaction system was cooled to room temperature, filtered and concentrated to remove the solvent, to give samples, and XRPD testing was performed on the samples.
smiles,measurement,setting,value
COC(=O)N1CCN([C@H]2CC[C@H](Nc3nc(Nc4cnn(C5CCOCC5)c4)nc4snc(C)c34)CC2)CC1 [Compound of formula (I)],Approximate solubility,[1],<1000 µg/mL
COC(=O)N1CCN([C@H]2CC[C@H](Nc3nc(Nc4cnn(C5CCOCC5)c4)nc4snc(C)c34)CC2)CC1,solubility at 24 h,"[2]; aqueous buffer, thermodynamic from solid, pH = 6.00 buffer, 37° C., 24 h, pH (24 h) 5.12, white suspension, read-out: Solubility (mg/mL) _24 hr",1.3 mg/mL
same,solubility at 24 h,"[2]; pH 1.77, simulated gastric fluid, thermodynamic from solid, SGF, 37° C., 24 h, pH (24 h) 1.77, opalescent and opaque, read-out: Solubility (mg/mL) _24 hr",10.5 mg/mL
same,solubility at 24 h,"[2]; pH 2.00 and pH 3.8 buffers, 37 °C, simulated gastric fluid, thermodynamic from solid, at pH=1.00, pH=2.00, pH=3.8, water and SGF, read-out: solubility",> 10 mg/mL
same,solubility at 24 h,"[2]; pH 3.8, aqueous buffer, thermodynamic from solid, pH = 3.80 buffer, 37° C., 24 h, pH (24 h) 2.61, opalescent and opaque, read-out: Solubility (mg/mL) _24 hr",10.2 mg/mL
same,solubility at 24 h,"[2]; pH 4.5, aqueous buffer, thermodynamic from solid, pH = 4.50 buffer, 37° C., 24 h, pH (24 h) 4.12, white suspension, read-out: Solubility (mg/mL) _24 hr",10.3 mg/mL
same,solubility at 24 h,"[2]; pH 4.75, thermodynamic from solid, FeSSIF, 37° C., 24 h, pH (24 h) 4.75, white suspension, read-out: Solubility (mg/mL) _24 hr",1.32 mg/mL
same,solubility at 24 h,"[2]; pH 5.5, aqueous buffer, thermodynamic from solid, pH = 5.50 buffer, 37° C., 24 h, pH (24 h) 5.26, white suspension, read-out: Solubility (mg/mL) _24 hr",0.31 mg/mL
same,solubility at 24 h,"[2]; pH 6.04, thermodynamic from solid, FaSSIF, 37° C., 24 h, pH (24 h) 6.04, white suspension, read-out: Solubility (mg/mL) _24 hr",0.14 mg/mL
same,solubility at 24 h,"[2]; pH 6.8, aqueous buffer, thermodynamic from solid, pH = 6.80 buffer, 37° C., 24 h, pH (24 h) 6.57, white suspension, read-out: Solubility (mg/mL) _24 hr",0.05 mg/mL
same,solubility at 24 h,"[2]; pH 7.4, aqueous buffer, thermodynamic from solid, pH = 7.40 buffer, 37° C., 24 h, pH (24 h) 7.07, white suspension, read-out: Solubility (mg/mL) _24 hr",0.0012 mg/mL
same,solubility at 24 h,"[2]; simulated gastric fluid, thermodynamic from solid, pH = 1.00 buffer, 37° C., 24 h, pH (24 h) 1.11, opalescent and opaque, read-out: Solubility (mg/mL) _24 hr",10.5 mg/mL
same,solubility at 24 h,"[2]; simulated gastric fluid, thermodynamic from solid, pH = 2.00 buffer, 37° C., 24 h, pH (24 h) 1.90, opalescent and opaque, read-out: Solubility (mg/mL) _24 hr",10.5 mg/mL
same,solubility at 24 h,"[2]; water, pH 2.29, water, thermodynamic from solid, H2O, 37° C., 24 h, pH (24 h) 2.29, opalescent and opaque, read-out: Solubility (mg/mL) _24 hr",9.12 mg/mL
same,bioavailability,[3]; read-out: Bioavailability F (%),62%
same,AUC(0-t),[3]; read-out: Area under plasma concentration-time curve AUC0-last,10.6 µM·h
same,Cmax,[3]; read-out: Peak concentration Cmax,1580 nM
same,Tmax,[3]; read-out: Time to peak Tmax,3 h
COC(=O)N1CCN([C@H]2CC[C@H](Nc3nc(Nc4cnn(C5CCOCC5)c4)nc4snc(C)c34)CC2)CC1 [Crystalline form A of the compound of formula (II)],Approximate solubility,[1],>100000 µg/mL
same,Determination result (hygroscopicity),[4],Slightly hygroscopic (0.2% to 2% weight gain)
same,Weight gain % Average value,[4]; average of two samples,1.3%
same,Weight gain %,[4]; single samples No. 1 and 2,1.34% and 1.22%
same,crystal form under all stability conditions,[5],unchanged
same,crystalline form after suspension stirring (XRPD),[6],all samples were the crystalline form A of the compound of formula (II)
same,solubility description (Chinese pharmacopoeia),[2]; at pH=4.50,minimally soluble
same,solubility description (Chinese pharmacopoeia),[2]; at pH=5.00 and FaSSIF,very slightly soluble
same,solubility description (Chinese pharmacopoeia),[2]; at pH=6.00 and FeSSIF,slightly soluble
same,solubility description (Chinese pharmacopoeia),[2]; at pH=6.80 and pH=7.40,almost insoluble or insoluble
